Laboratory results reported in patent publication US9555029B2 (HIKMA PHARMACEUTICALS, priority 2013, dated 2017).
Like-named read-outs stand apart in the source and are kept apart here.

What was measured:
[1] = cited from earlier work; for AUCT / Cmax: geometric mean
[2] = cited from earlier work; for Kel / T1/2el: arithmetic mean; for AUCT / Cmax: geometric mean
clinical [3] = conditions: human, plasma, oral
clinical [4] = conditions: male, human, in vivo
Excerpt: Subjects were included only if they were not older than 45 years (as opposed to no upper limit). Also, in inclusion criteria the lower threshold for the body mass index was 21.00 (as opposed to 18.00) kg/m^2.

[5] = cited from earlier work
[6] = Treatment-1: colchicine 0.6 mg alone (day 1, fasted), diltiazem ER study
[7] = Treatment-2: colchicine 0.6 mg (day 21) + diltiazem ER 240 mg once daily (days 15-21), arithmetic mean
[8] = Treatment-2: colchicine 0.6 mg (day 21) + diltiazem ER 240 mg once daily (days 15-21)
[9] = Treatment-1: colchicine 0.6 mg alone (day 1, fasted), azithromycin study
[10] = Treatment-2: colchicine 0.6 mg (day 19) + azithromycin 500 mg day 15, 250 mg once daily days 16-19
[11] = colchicine coadministered with azithromycin
[12] = colchicine coadministered with clarithromycin
[13] = colchicine coadministered with cyclosporine
[14] = colchicine coadministered with diltiazem ER
[15] = colchicine coadministered with ketoconazole
[16] = colchicine coadministered with ritonavir
[17] = colchicine coadministered with verapamil ER

COc1cc2c(c(OC)c1OC)-c1ccc(OC)c(=O)cc1[C@@H](NC(C)=O)CC2 [Colchicine, (S)N-(5,6,7,9-tetrahydro-1,2,3,10-tetramethoxy-9-oxobenzo[alpha]heptalen-7-yl)acetamide]
CLTOT/F [1, 6]: 58.88 L/h
AUCT [1, 6]: 10,040 pg · h/mL
Cmax [1, 6]: 2,170 pg/mL
Kel [1, 7]: 0.0838 h⁻¹
T1/2el [1, 7]: 12.5 h
CLTOT/F [1, 8]: 34.7 L/h
AUCT [1, 8]: 12,730 pg · h/mL
Cmax [1, 8]: 2,800 pg/mL
Kel [2, 9]: 0.147 h⁻¹
T1/2el [2, 9]: 6.07 h
CLTOT/F [2, 9]: 50.24 L/h
AUCT [2, 9]: 11,980 pg · h/mL
Cmax [2, 9]: 2,740 pg/mL
Kel [2, 10]: 0.1426 h⁻¹
T1/2el [2, 10]: 6.71 h
CLTOT/F [2, 10]: 35.01 L/h
AUCT [2, 10]: 17,160 pg · h/mL
Cmax [2, 10]: 3,050 pg/mL
AUC(0-t) (clinical [3]; both, AUCT, Treatment-2 (day 9): colchicine 0.6 mg + cimetidine 800 mg after double dose day 4, once daily days 5-8, fasted, mean): 0.0181 µg·h/mL
CL/F (clinical [3]; 0.6 mg): 465 mL/min
Tmax (clinical [3]; 0.6 mg): 1.25 h
Vd/F (clinical [3]; 0.6 mg): 1410 L
AUC(0-t) (clinical [3]; 0.6 mg, AUCT GEOMETRIC LSMEANS, Treatment-1: colchicine 0.6 mg alone, cimetidine study): 0.0193 µg·h/mL
AUC(0-t) (clinical [3]; 0.6 mg, AUCT, Treatment-1 (day 1): colchicine 0.6 mg alone, fasted, cimetidine study, mean): 0.0204 µg·h/mL
AUC(0-inf) (clinical [3]; 0.6 mg, AUC∞ GEOMETRIC LSMEANS, Treatment-1: colchicine 0.6 mg alone, cimetidine study): 0.0226 µg·h/mL
AUC(0-inf) (clinical [3]; 0.6 mg, AUC∞, Treatment-1 (day 1): colchicine 0.6 mg alone, fasted, cimetidine study, mean): 0.024 µg·h/mL
Cmax (clinical [3]; 0.6 mg, Cmax GEOMETRIC LSMEANS, Treatment-1: colchicine 0.6 mg alone, cimetidine study): 2.78 ng/mL
Cmax (clinical [3]; 0.6 mg, Cmax, Treatment-1 (day 1): colchicine 0.6 mg alone, fasted, cimetidine study, mean): 3 ng/mL
AUC(0-t) (clinical [3]; AUCT GEOMETRIC LSMEANS, Treatment-2: colchicine 0.6 mg + cimetidine): 0.0167 µg·h/mL
AUC(0-inf) (clinical [3]; AUC∞ GEOMETRIC LSMEANS, Treatment-2: colchicine 0.6 mg + cimetidine): 0.0193 µg·h/mL
AUC(0-inf) (clinical [3]; AUC∞, Treatment-2 (day 9): colchicine 0.6 mg + cimetidine 800 mg after double dose day 4, once daily days 5-8, fasted, mean): 0.021 µg·h/mL
Cmax (clinical [3]; Cmax GEOMETRIC LSMEANS, Treatment-2: colchicine 0.6 mg + cimetidine): 1.88 ng/mL
Cmax (clinical [3]; Cmax, Treatment-2 (day 9): colchicine 0.6 mg + cimetidine 800 mg after double dose day 4, once daily days 5-8, fasted, mean): 2.11 ng/mL
CL/F (clinical [4]; 0.6 mg): 558 mL/min
Tmax (clinical [4]; 0.6 mg): 1.5 h
Vd/F (clinical [4]; 0.6 mg): 1410 L
AUC(0-t) (clinical [4]; 0.6 mg, AUCT GEOMETRIC LSMEANS, Treatment-1: colchicine 0.6 mg alone, propafenone study): 0.0162 µg·h/mL
AUC(0-t) (clinical [4]; 0.6 mg, AUCT, Treatment-1 (day 1): colchicine 0.6 mg alone, fasted, propafenone study, mean): 0.0166 µg·h/mL
AUC(0-inf) (clinical [4]; 0.6 mg, AUC∞ GEOMETRIC LSMEANS, Treatment-1: colchicine 0.6 mg alone, propafenone study): 0.0184 µg·h/mL
AUC(0-inf) (clinical [4]; 0.6 mg, AUC∞, Treatment-1 (day 1): colchicine 0.6 mg alone, fasted, propafenone study, mean): 0.0189 µg·h/mL
Cmax (clinical [4]; 0.6 mg, Cmax GEOMETRIC LSMEANS, Treatment-1: colchicine 0.6 mg alone, propafenone study): 2.05 ng/mL
Cmax (clinical [4]; 0.6 mg, Cmax, Treatment-1 (day 1): colchicine 0.6 mg alone, fasted, propafenone study, mean): 2.12 ng/mL
AUC(0-t) (clinical [4]; AUCT GEOMETRIC LSMEANS, Treatment-2: colchicine 0.6 mg + propafenone): 0.0164 µg·h/mL
AUC(0-t) (clinical [4]; AUCT, Treatment-2 (day 9): colchicine 0.6 mg + propafenone 225 mg after twice daily days 4-8, fasted, mean): 0.0168 µg·h/mL
AUC(0-inf) (clinical [4]; AUC∞ GEOMETRIC LSMEANS, Treatment-2: colchicine 0.6 mg + propafenone): 0.0184 µg·h/mL
AUC(0-inf) (clinical [4]; AUC∞, Treatment-2 (day 9): colchicine 0.6 mg + propafenone 225 mg after twice daily days 4-8, fasted, mean): 0.0189 µg·h/mL
Cmax (clinical [4]; Cmax GEOMETRIC LSMEANS, Treatment-2: colchicine 0.6 mg + propafenone): 2.18 ng/mL
Cmax (clinical [4]; Cmax, Treatment-2 (day 9): colchicine 0.6 mg + propafenone 225 mg after twice daily days 4-8, fasted, mean): 2.21 ng/mL
Number of 24 subjects with adverse events overall [5, 11]: 11
Percent of 24 subjects with adverse events overall [5, 11]: (45.8) %
Total number of adverse events [5, 11]: 27
Number of 24 subjects with adverse events overall [5, 12]: 14
Percent of 24 subjects with adverse events overall [5, 12]: (58.3) %
Total number of adverse events [5, 12]: 26
Number of 24 subjects with adverse events overall [5, 13]: 6
Percent of 24 subjects with adverse events overall [5, 13]: (25.0%)
Total number of adverse events [5, 13]: 5
Number of 24 subjects with adverse events overall [5, 14]: 14
Percent of 24 subjects with adverse events overall [5, 14]: (58.3) %
Total number of adverse events [5, 14]: 21
Number of 24 subjects with adverse events overall [5, 15]: 10
Percent of 24 subjects with adverse events overall [5, 15]: (41.7) %
Total number of adverse events [5, 15]: 11
Number of 24 subjects with adverse events overall [5, 16]: 5
Percent of 24 subjects with adverse events overall [5, 16]: (20.8) %
Total number of adverse events [5, 16]: 8
Number of 24 subjects with adverse events overall [5, 17]: 14
Percent of 24 subjects with adverse events overall [5, 17]: (58.3) %
Total number of adverse events [5, 17]: 22
